# Measured values published in patent US20160355530A1, “HEPATITIS C INHIBITORS AND USES THEREOF” (AbbVie Inc., priority 2010, published 2016).
# Read-outs that look alike come from different tables or passages of the source.
# Columns and labels:
# [1] = test system: HCV 1b-BB7 subgenomic replicon; experiment: microbe, parasite or virus in culture; assay type: cell-based, HCV genotype 1b; details: Hepatitis C virus, stable replicon
# [2] = target: T1, HCV NS5B polymerase 1b BK strain (Hepatitis C virus genotype 1b, UniProt P26663); experiment: HCV NS5B polymerase enzymatic inhibition assay, strain 1b BK; assay type: biochemical; details: enzyme, strain 1b BK; read-out: HCV Polymerase Strain 1b BK IC50
# T1 construct: six-histidine tag; made in house; host or cells: E. coli
# Method: (§1) Purified HCV NS5B polymerase enzymes were used for polymerase inhibition assays. All recombinant HCV polymerases contained the first 570 amino acids of the 591 amino acid native protein sequence and a six-histidine tag at the N-terminus or C-terminus to facilitate purification by affinity chromatography. The DNA nucleotide sequence for the HCV polymerase 1b BK strain was codon optimized for expression in E. coli. A synthetic gene was prepared from a series of overlapping oligonucleotides that were filled in using a DNA polymerase and amplified by PCR. The patient isolate HCV polymerases were cloned by RT-PCR methods using HCV RNA extracted from the serum of infected subjects obtained from ProMedDx and BioCollections (genotypes 2a, 2b, 3a, and 4a). Laboratory strains were cloned from plasmid DNA (1a-H77 or 1a-H77-C316Y) or from existing replicon cells (1b Rice). In all cases the amplified DNA was cloned into a protein expression vector (typically a pET vector from Novagen) and then multiple clones were sequenced to identify one whose NS5B sequence agreed with the population sequence. This sequence-confirmed clone was then transfected into E. coli for protein expression and purification. E. coli cultures were grown to a maximum optical density (OD) of 2-3 and then induced with 0.4 mM isopropyl beta-D-thiogalactopyranoside (IPTG) and grown for 20 hours at 20° C.
# (§2) Proteins were purified using nickel affinity chromatography, and additional column steps were added including, ion exchange, size exclusion, hydrophobic ion, and poly-U affinity chromatography, as needed, depending on the sample being purified. The template RNA used in the polymerase enzymatic assay was a 2.1 kb construct that corresponds to the 3′-end of an HCV genotype 1b negative strand RNA.
# (§3) The reaction was initiated by the addition of 20 μM CTP, 20 μM ATP, 0.284 μM (0.5 μCi) of 5,6-[^3H] UTP, 5 nM template RNA and 0.1 U/μL RNase inhibitor (RNasin, Promega), and allowed to proceed for three hours at 30° C. The final reaction volume was 50 μL. The reaction was terminated by the addition of 50 uL of 4 mM spermine in 10 mM Tris-HCl, pH 7.5, 1 mM EDTA. The quenched reaction was allowed to incubate for at least 15 minutes at room temperature, and then the precipitated RNA was captured by filtration through a glass fiber filter (GF/B, Millipore) in a 96 well format. The filter plate was washed five times with 200 μL of 2 mM spermine, 10 mM Tris-HCl, pH 8.0, 1 mM EDTA, and two times with ethanol. After drying thoroughly in air, 30 μL of Microscint-20 scintillation cocktail (Perkin Elmer) was added to each well, and the retained cpm were determined by scintillation counting. IC50 values were determined by nonlinear regression.
# (§4) % Inhibition=100*[[I]/([I]+[IC50])] equation 1
# (§5) V=kcat[S]/2(Km+[S])*(sqrt((IC50+I−E)̂2+(4*IC50*E))−(IC50+I−E)) equation 2
# [3] = target: T2, HCV NS5B polymerase 1a-H77 (Hepatitis C virus genotype 1a, UniProt P27958); experiment: biochemical; design: species or system HCV genotype 1a; details: enzyme, strain 1a H77; read-out: HCV Polymerase Strain 1a H77 IC50
# T2 construct: six-histidine tag; made in house; host or cells: E. coli
# Method: as §1, §2, §3, §4, §5
# [4] = target: T3, HCV NS5B polymerase 1a-H77-C316Y (Hepatitis C virus genotype 1a, UniProt P27958, C2736Y); experiment: biochemical; design: species or system HCV genotype 1a
# T3 construct: six-histidine tag; made in house; host or cells: E. coli
# Method: as §1, §2, §3, §4, §5
# [5] = test system: HCV NS5B polymerase 1a-H77-C316Y; experiment: biochemical; design: species or system HCV genotype 1a; details: ratio of enzyme IC50s, 1a H77-C316Y / 1a H77
# Method: as §1, §2, §3, §4, §5
# [6] = test system: HCV 1a-H77 subgenomic replicon; experiment: microbe, parasite or virus in culture; assay type: cell-based, HCV genotype 1a; details: Hepatitis C virus, stable replicon
# [7] = strain 1b BB7, 5% FBS + 40% human plasma, read-out: 1b BB7 5% FBS + 40% Human Plasma EC50
# [8] = strain 1b BB7, 5% FBS, no human plasma, read-out: 1b BB7 5% FBS EC50
# [9] = strain 1b BB7, 5% FBS, read-out: 1b BB7 5% FBS EC50
# [10] = 5% FBS, absence of human plasma, read-out: Stable Replicon 1a H77 5% FBS EC50
# [11] = strain 1a H77, 5% FBS + 40% human plasma, read-out: 1a H77 5% FBS + 40% Human Plasma EC50
# [12] = strain 1a H77, 5% FBS, no human plasma, read-out: 1a H77 5% FBS EC50
# [13] = strain 1a H77, 5% FBS, read-out: 1a H77 5% FBS EC50
# T1 sequence (P26663 2420-2989): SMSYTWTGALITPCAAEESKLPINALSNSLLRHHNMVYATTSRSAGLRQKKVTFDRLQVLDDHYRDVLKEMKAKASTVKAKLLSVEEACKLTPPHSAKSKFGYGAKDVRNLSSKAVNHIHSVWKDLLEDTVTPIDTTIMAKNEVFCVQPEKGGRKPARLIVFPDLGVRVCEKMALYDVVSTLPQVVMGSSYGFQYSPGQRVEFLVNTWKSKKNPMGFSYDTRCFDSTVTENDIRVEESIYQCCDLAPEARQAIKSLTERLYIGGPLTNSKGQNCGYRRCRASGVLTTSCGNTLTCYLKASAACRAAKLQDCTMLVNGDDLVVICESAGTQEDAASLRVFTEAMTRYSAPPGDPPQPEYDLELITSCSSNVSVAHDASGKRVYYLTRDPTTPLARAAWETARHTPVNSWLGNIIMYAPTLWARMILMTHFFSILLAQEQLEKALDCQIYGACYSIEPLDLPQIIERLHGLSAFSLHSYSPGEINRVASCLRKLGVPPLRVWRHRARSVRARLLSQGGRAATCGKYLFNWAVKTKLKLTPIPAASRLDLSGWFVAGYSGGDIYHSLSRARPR
# T2 sequence (P27958 2421-2990): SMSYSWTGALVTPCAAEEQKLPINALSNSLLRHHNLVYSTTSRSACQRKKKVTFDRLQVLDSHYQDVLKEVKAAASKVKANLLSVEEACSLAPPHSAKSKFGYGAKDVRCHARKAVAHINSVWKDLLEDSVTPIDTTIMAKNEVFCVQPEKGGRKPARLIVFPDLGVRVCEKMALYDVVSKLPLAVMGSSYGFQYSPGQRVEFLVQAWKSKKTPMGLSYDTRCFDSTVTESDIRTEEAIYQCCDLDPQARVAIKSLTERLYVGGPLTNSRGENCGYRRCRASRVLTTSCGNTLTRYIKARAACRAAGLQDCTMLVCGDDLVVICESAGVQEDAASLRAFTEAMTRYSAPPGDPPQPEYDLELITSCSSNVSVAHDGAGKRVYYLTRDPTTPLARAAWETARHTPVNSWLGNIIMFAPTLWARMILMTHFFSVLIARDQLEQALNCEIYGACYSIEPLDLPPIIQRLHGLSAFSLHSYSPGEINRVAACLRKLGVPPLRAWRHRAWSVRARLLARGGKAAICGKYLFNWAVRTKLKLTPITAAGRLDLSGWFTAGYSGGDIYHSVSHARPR
# T3 sequence (P27958 2421-2990 C2736Y): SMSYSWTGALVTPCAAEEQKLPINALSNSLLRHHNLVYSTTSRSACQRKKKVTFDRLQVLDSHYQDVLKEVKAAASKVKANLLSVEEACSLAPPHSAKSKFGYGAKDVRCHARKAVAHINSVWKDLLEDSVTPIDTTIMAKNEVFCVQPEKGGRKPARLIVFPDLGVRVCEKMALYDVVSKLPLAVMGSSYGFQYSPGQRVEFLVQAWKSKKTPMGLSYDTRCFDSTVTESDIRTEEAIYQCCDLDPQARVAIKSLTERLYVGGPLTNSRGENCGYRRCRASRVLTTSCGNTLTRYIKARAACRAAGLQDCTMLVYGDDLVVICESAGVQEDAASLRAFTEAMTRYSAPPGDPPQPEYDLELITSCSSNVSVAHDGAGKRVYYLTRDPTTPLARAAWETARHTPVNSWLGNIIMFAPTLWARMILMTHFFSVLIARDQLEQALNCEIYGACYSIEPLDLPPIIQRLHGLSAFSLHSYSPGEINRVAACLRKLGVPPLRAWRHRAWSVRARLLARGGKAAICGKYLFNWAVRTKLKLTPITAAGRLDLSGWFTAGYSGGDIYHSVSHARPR
Compound,"EC50 [1, 7] [nM]","EC50 [1, 8] [nM]","EC50 [1, 9] [nM]",IC50 [2] [nM],IC50 [3] [nM],IC50 [4] [nM],C316Y/1a Fold Resistance [5] [fold],"EC50 [6, 10] [nM]","EC50 [6, 11] [nM]","EC50 [6, 12] [nM]","EC50 [6, 13] [nM]"
"CC(c1ccccc1)N(c1ccc2c(-c3ncc[nH]3)c(-c3ccccc3)oc2c1)S(C)(=O)=O (centres unmarked) [Example 20, N-[3-(1H-imidazol-2-yl)-2-phenyl-1-benzofuran-6-yl]-N-(1-phenylethyl)methanesulfonamide]",7300,133,133,52,34.9,173,5,1000,10000,1000,1000
"CS(=O)(=O)N(Cc1ccccc1)c1ccc2c(-c3ncc[nH]3)c(-c3ccccc3)oc2c1 [Example 21, N-benzyl-N-[3-(1H-imidazol-2-yl)-2-phenyl-1-benzofuran-6-yl]methanesulfonamide]",10000,593,593,99,47.6,90,2,3440,,3440,3440
"CS(=O)(=O)N(Cc1sc(Br)nc1C(F)(F)F)c1ccc2c(-c3ncc[nH]3)c(-c3ccccc3)oc2c1 [Example 22, N-{[2-bromo-4-(trifluoromethyl)-1,3-thiazol-5-yl]methyl}-N-[3-(1H-imidazol-2-yl)-2-phenyl-1-benzofuran-6-yl]methanesulfonamide]",,866,866,55,159,179,1,2380,,2380,2380
"CC(C)(C)Oc1ncc(-c2ncc(CN(c3ccc4c(-c5ncc[nH]5)c(-c5ccccc5)oc4c3)S(C)(=O)=O)s2)c(OC(C)(C)C)n1 [Example 27, N-{[2-(2,4-di-tert-butoxypyrimidin-5-yl)-1,3-thiazol-5-yl]methyl}-N-[3-(1H-imidazol-2-yl)-2-phenyl-1-benzofuran-6-yl]methanesulfonamide]",5460,75,75,99,214,3800,18,866,10000,866,866
"CS(=O)(=O)N(Cc1cnc(-c2c[nH]c(=O)[nH]c2=O)s1)c1ccc2c(-c3ncc[nH]3)c(-c3ccccc3)oc2c1 [Example 29, N-{[2-(2,4-dioxo-1,2,3,4-tetrahydropyrimidin-5-yl)-1,3-thiazol-5-yl]methyl}-N-[3-(1H-imidazol-2-yl)-2-phenyl-1-benzofuran-6-yl]methanesulfonamide]",9830,207,207,9,3,7,2,1000,10000,1000,1000
"CS(=O)(=O)N(Cc1cccc(C(F)(F)F)c1)c1ccc2c(-c3ncc[nH]3)c(-c3ccccc3)oc2c1 [Example 32, N-[3-(1H-imidazol-2-yl)-2-phenyl-1-benzofuran-6-yl]-N-[3-(trifluoromethyl)benzyl]methanesulfonamide]",79600,599,599,80.1,132,147,1,2370,,2370,2370
"CCOC(=O)CN(c1cc2oc(-c3ccc(F)cc3)c(-c3ncc[nH]3)c2cc1C1CC1)S(C)(=O)=O [Example 33, ethyl N-[5-cyclopropyl-2-(4-fluorophenyl)-3-(1H-imidazol-2-yl)-1-benzofuran-6-yl]-N-(methylsulfonyl)glycinate]",4810,200,200,152,10.5,1900,181,163,8840,163,163
"CS(=O)(=O)N(CC1CCCC1)c1cc2oc(-c3ccc(F)cc3)c(-c3ncc[nH]3)c2cc1C1CC1 [Example 34, N-(cyclopentylmethyl)-N-[5-cyclopropyl-2-(4-fluorophenyl)-3-(1H-imidazol-2-yl)-1-benzofuran-6-yl]methanesulfonamide]",854,65,65,22,5,149,30,70,1290,70,70
"CS(=O)(=O)N(CCc1ccccc1)c1cc2oc(-c3ccc(F)cc3)c(-c3ncc[nH]3)c2cc1C1CC1 [Example 35, N-[5-cyclopropyl-2-(4-fluorophenyl)-3-(1H-imidazol-2-yl)-1-benzofuran-6-yl]-N-(2-phenylethyl)methanesulfonamide]",1130,51,51,7,4.9,113,23,102,1580,102,102
"CS(=O)(=O)N(CC(N)=O)c1cc2oc(-c3ccc(F)cc3)c(-c3ncc[nH]3)c2cc1C1CC1 [Example 36, N^2-[5-cyclopropyl-2-(4-fluorophenyl)-3-(1H-imidazol-2-yl)-1-benzofuran-6-yl]-N^2-(methylsulfonyl)glycinamide]",1120,180,180,188,7.9,3400,428,301,2140,301,301
"CC(C)CCCN(c1cc2oc(-c3ccc(F)cc3)c(-c3ncc[nH]3)c2cc1C1CC1)S(C)(=O)=O [Example 40, N-[5-cyclopropyl-2-(4-fluorophenyl)-3-(1H-imidazol-2-yl)-1-benzofuran-6-yl]-N-(4-methylpentyl)methanesulfonamide]",445,23,23,19,6.5,70,11,23,525,23,23
"CS(=O)(=O)N(CCCc1ccccc1)c1cc2oc(-c3ccc(F)cc3)c(-c3ncc[nH]3)c2cc1C1CC1 [Example 41, N-[5-cyclopropyl-2-(4-fluorophenyl)-3-(1H-imidazol-2-yl)-1-benzofuran-6-yl]-N-(3-phenylpropyl)methanesulfonamide]",364,40,40,16,5,58,12,73,911,73,73
